For the first assay, the system named is HEK293 cells. In words: HEK293 VLCFA-LPC IC50 determination (13C-labeled C26:0 LPC by UHPLC/MS). The assay is classed as cell-based, human. Conditions: Homo sapiens, HEK293, 48 h, average of one or more replicates; 13C-labeled C26:0 LPC, 48 hours; read-out: Average HEK293 IC50. The gist of the method:
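Suspension HEK293 cells (final 0.5 million/mL after mixing with equal volume) incubated 48 hours with compound plus 13C-acetate (1.0 mg/mL in added media), shaking at 37° C. Lipids extracted with hexane/isopropanol or methanol, C13:0 LPC standard. UHPLC/MS of 13C-labeled C26:0 LPC (638.500/104.100 m/z); IC50 by four-parameter fit.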
In the case of `COc1ccc(-n2ccc(NC(=O)C3(c4ccccc4F)CC3)n2)cn1` [Compound 319, 1-(2-fluorophenyl)-N-(1-(6-methoxypyridin-3-yl)-1H-pyrazol-3-yl)cyclopropane-1-carboxamide], the IC50 is 0.058 µM.
Regarding `CC(C)(O)c1ncc(-n2ccc(NC(=O)C3(c4ccccc4F)CC3)n2)cc1F` [Compound 354, N-[1-[5-fluoro-6-(1-hydroxy-1-methyl-ethyl)-3-pyridyl]pyrazol-3-yl]-1-(2-fluorophenyl)cyclopropanecarboxamide], the 50% inhibitory concentration (IC50) was greater than 5 µM.
As to `O=C(Nc1ccn(-c2cnnc(O)c2)n1)C1(c2ccccc2F)CC1` [Compound 356, 1-(2-fluorophenyl)-N-[1-(6-hydroxypyridazin-4-yl)pyrazol-3-yl]cyclopropanecarboxamide], the IC50 is greater than 5 µM.
Take `COc1nccc(-n2ccc(NC(=O)C3(c4ccccc4F)CC3)n2)c1C#N` [Compound 336, N-[1-(3-cyano-2-methoxy-4-pyridyl)pyrazol-3-yl]-1-(2-fluorophenyl)cyclopropanecarboxamide]: the IC50 is greater than 5 µM.
Turning to `Cc1cc(-n2ccc(NC(=O)C3(c4ccccc4F)CC3)n2)c(C)cn1` [Compound 350, N-[1-(2,5-dimethyl-4-pyridyl)pyrazol-3-yl]-1-(2-fluorophenyl)cyclopropanecarboxamide], the IC50 was greater than 5 µM.

Staying with this assay, now noted: Homo sapiens, HEK293, HEK293 cells; average of one or more replicates; read-out: Average HEK293 IC50.
On to `O=C(Nc1ccn(-c2ccccc2)n1)C1(c2cnccn2)CC1` [Compound 477, N-(1-phenylpyrazol-3-yl)-1-pyrazin-2-yl-cyclopropanecarboxamide], for which the IC50 was found to be 1.5 µM.
Turning to `O=C(Nc1ccn(-c2ccncn2)n1)C1(c2ccccc2F)CC1` [Compound 206, 1-(2-fluorophenyl)-N-(1-pyrimidin-4-ylpyrazol-3-yl)cyclopropanecarboxamide], the IC50 worked out at 0.034 µM.
Take `O=C(Cc1ccc(F)cc1)Nc1ccn(-c2ccccc2)n1` [Compound 16, 2-(4-fluorophenyl)-N-(1-phenylpyrazol-3-yl)acetamide]: the IC50 is 0.33 µM.
As to `O=C(Nc1ccn(-c2ccc(F)cc2)n1)C1(c2ccccc2)CC1` [Compound 184, N-[1-(4-fluorophenyl)pyrazol-3-yl]-1-phenyl-cyclopropanecarboxamide], the IC50 turned out to be 0.28 µM.
Consider `O=C(Nc1ccn(-c2ccnc(F)c2)n1)C1(c2cc(F)cc(F)c2)CC1` [Compound 270, 1-(3,5-difluorophenyl)-N-[1-(2-fluoro-4-pyridyl)pyrazol-3-yl]cyclopropanecarboxamide], for which the IC50 was found to be 0.28 µM.
For `O=C(Nc1ccn(-c2ccc(Cl)c(F)c2)n1)C1(c2ccccc2)CC1` [Compound 196, N-[1-(4-chloro-3-fluoro-phenyl)pyrazol-3-yl]-1-phenyl-cyclopropanecarboxamide], the IC50 was greater than 5 µM.
Take `COc1cc(CC(=O)Nc2ccn(-c3ccccc3)n2)ccc1O` [Compound 9, 2-(4-hydroxy-3-methoxy-phenyl)-N-(1-phenylpyrazol-3-yl)acetamide]: the IC50 is greater than 5 µM.
Same read-out and setting: the same measure for `Cn1nccc1-n1ccc(NC(=O)C2(c3ccccc3F)CC2)n1` [Compound 417, 1-(2-fluorophenyl)-N-[1-(2-methylpyrazol-3-yl)pyrazol-3-yl]cyclopropanecarboxamide]: 0.29 µM; for `O=C(Nc1ccn(-c2ccccc2)n1)C1(c2ccccc2)CCCCC1` [Compound 142, 1-phenyl-N-(1-phenylpyrazol-3-yl)cyclohexanecarboxamide]: greater than 5 µM; for `O=C(Nc1ccn(-c2ccc(OC(F)F)nc2)n1)C1(c2ccccc2F)CC1` [Compound 409, N-[1-[6-(difluoromethoxy)-3-pyridyl]pyrazol-3-yl]-1-(2-fluorophenyl)cyclopropanecarboxamide]: greater than 5 µM.
For the compound `O=C(Nc1ccn(-c2cccc(C(F)(F)F)c2)n1)C1(c2ccccc2)CC1` [Compound 159, 1-phenyl-N-[1-[3-(trifluoromethyl)phenyl]pyrazol-3-yl]cyclopropanecarboxamide], the IC50 was greater than 5 µM.
`Cc1cccc(C2(C(=O)Nc3ccn(-c4ccnc(F)c4)n3)CC2)c1` [Compound 245, N-[1-(2-fluoro-4-pyridyl)pyrazol-3-yl]-1-(m-tolyl)cyclopropanecarboxamide]: the IC50 amounted to 0.26 µM.
For the compound `Cn1ccc(-n2ccc(NC(=O)Cc3ccccc3F)n2)n1` [Compound 230, 2-(2-fluorophenyl)-N-[1-(1-methylpyrazol-3-yl)pyrazol-3-yl]acetamide], the IC50 was greater than 5 µM.
Turning to `CC1(C)CC1(C(=O)Nc1ccn(-c2ccnc(F)c2)n1)c1ccccc1` (stereo not shown) [Compound 165, N-[1-(2-fluoro-4-pyridyl)pyrazol-3-yl]-2,2-dimethyl-1-phenyl-cyclopropanecarboxamide], the half-inhibitory concentration (IC50) is 0.05 µM.
For the compound `O=C(Nc1ccn(-c2ccccc2)n1)C1(c2ncccc2F)CC1` [Compound 281, 1-(3-fluoro-2-pyridyl)-N-(1-phenylpyrazol-3-yl)cyclopropanecarboxamide], the IC50 turned out to be 0.058 µM.
In the case of `O=C(Nc1ccn(-c2ccnc(F)c2)n1)C(c1ccccc1)C1CC1` (stereo not shown) [Compound 175, 2-cyclopropyl-N-[1-(2-fluoro-4-pyridyl)pyrazol-3-yl]-2-phenyl-acetamide], the IC50 came out at 0.52 µM.
The same measure, in the same setting: the same measure for `COc1cc(-n2ccc(NC(=O)C3(c4ccc(F)cn4)CC3)n2)ccn1` [Compound 485, 1-(5-fluoro-2-pyridyl)-N-[1-(2-methoxy-4-pyridyl)pyrazol-3-yl]cyclopropanecarboxamide]: 1.5 µM; for `O=C(Cc1ccccc1F)Nc1ccn(-c2ccc(Cl)cc2)n1` [Compound 133, N-[1-(4-chlorophenyl)pyrazol-3-yl]-2-(2-fluorophenyl)acetamide]: greater than 5 µM; for `O=C(Nc1ccn(-c2ccccc2)n1)C1(c2ccccc2)CC1(F)F` (racemic) [Compound 143, 2,2-difluoro-1-phenyl-N-(1-phenyl-1H-pyrazol-3-yl)cyclopropane-1-carboxamide]: 0.14 µM.
For the compound `COc1ccc(-n2ccc(NC(=O)C3(c4ccccc4F)CC3)n2)c(F)c1` [Compound 470], the IC50 is greater than 2 µM.
In the case of `O=C(Nc1ccn(-c2ccncc2)n1)C1(c2ncccc2F)CC12CC2` (stereo not shown) [Compound 526, 2-(3-fluoro-2-pyridyl)-N-[1-(4-pyridyl)pyrazol-3-yl]spiro[2.2]pentane-2-carboxamide], the IC50 was 1.9 µM.
Still for that read-out and setting: the same measure for `O=C(Nc1ccn(-c2cncnc2)n1)C1(c2ccccc2F)CC1` [Compound 85, 1-(2-fluorophenyl)-N-(1-pyrimidin-5-ylpyrazol-3-yl)cyclopropanecarboxamide]: 0.095 µM; for `O=C(Nc1ccn(-c2ccccc2)n1)C1(c2ccc(F)cn2)CC1` [Compound 475, 1-(5-fluoro-2-pyridyl)-N-(1-phenylpyrazol-3-yl)cyclopropanecarboxamide]: 0.27 µM; for `Cn1ccnc1CC(=O)Nc1ccn(-c2ccccc2)n1` [Compound 311, 2-(1-methylimidazol-2-yl)-N-(1-phenylpyrazol-3-yl)acetamide]: greater than 5 µM.
For the compound `Cn1cnc(-n2ccc(NC(=O)C3(c4ccccc4F)CC3)n2)n1` [Compound 425, 1-(2-fluorophenyl)-N-[1-(1-methyl-1,2,4-triazol-3-yl)pyrazol-3-yl]cyclopropanecarboxamide], the IC50 is greater than 5 µM.
As for `O=C(Cc1ccccc1F)Nc1ccn(-c2ccccc2)n1` [Compound 1, 2-(2-fluorophenyl)-N-(1-phenylpyrazol-3-yl)acetamide], the IC50 came out at 0.068 µM.
On to `O=C(Nc1ccn(-c2ccnc(F)c2)n1)C1(c2ccccc2)CCCCC1` [Compound 148, N-[1-(2-fluoro-4-pyridyl)pyrazol-3-yl]-1-phenyl-cyclohexanecarboxamide], for which the IC50 was greater than 5 µM.
On to `O=C(Nc1ccn(-c2ccc(Cl)nc2)n1)C1(c2ccccc2)CC1` [Compound 106, N-[1-(6-chloro-3-pyridyl)pyrazol-3-yl]-1-phenyl-cyclopropanecarboxamide], for which the IC50 came to 0.25 µM.
The same measure, in the same setting: the same measure for `CC1(C)CC1(C(=O)Nc1ccn(-c2cc(F)cc(F)c2)n1)c1ncccc1F` (stereo not shown) [Compound 516, N-[1-(3,5-difluorophenyl)pyrazol-3-yl]-1-(3-fluoro-2-pyridyl)-2,2-dimethyl-cyclopropanecarboxamide]: 1.3 µM; for `N#Cc1ccc(C2(C(=O)Nc3ccn(-c4ccccc4)n3)CC2)cc1` [Compound 227, 1-(4-cyanophenyl)-N-(1-phenylpyrazol-3-yl)cyclopropanecarboxamide]: 0.29 µM; for `O=C(Nc1ccn(-c2ccc(Cl)cc2)n1)C1(c2ccccc2F)CC1` [Compound 131, N-[1-(4-chlorophenyl)pyrazol-3-yl]-1-(2-fluorophenyl)cyclopropanecarboxamide]: 0.48 µM.
Regarding `O=C(Cc1ccccc1F)Nc1ccn(-c2cc(F)ccc2F)n1` [Compound 162, N-[1-(2,5-difluorophenyl)pyrazol-3-yl]-2-(2-fluorophenyl)acetamide], the IC50 worked out at 0.74 µM.
In the case of `Cc1ncc(-n2ccc(NC(=O)C3(c4ccccc4F)CC3)n2)cn1` [Compound 241, 1-(2-fluorophenyl)-N-[1-(2-methylpyrimidin-5-yl)pyrazol-3-yl]cyclopropanecarboxamide], the IC50 is greater than 5 µM.
Still for that read-out and setting: as for `O=C(Cc1ccccc1F)Nc1ccn(-c2ccncc2F)n1` [Compound 139, 2-(2-fluorophenyl)-N-[1-(3-fluoro-4-pyridyl)pyrazol-3-yl]acetamide], the figure is 0.4 µM.
Regarding `O=C(Cc1ccccc1F)Nc1ccn(-c2ccnc(Cl)c2)n1` [Compound 4, N-[1-(2-chloro-4-pyridyl)pyrazol-3-yl]-2-(2-fluorophenyl)acetamide], the IC50 was 0.65 µM.

The term IC50 denotes the concentration needed to halve the response being measured.

For the origin of these results see patent US20180251431A1 (VERTEX PHARMACEUTICALS INCORPORATED, priority 2016, published 2018).
